The text below walks through data of patent US10408843B2, “Compositions and methods for detecting S-nitrosylation and S-sulfinylation” (The Regents of the University of Michigan, priority 2013, dated 2019).

The subject of this assay is 293T cell lysates. Put plainly: SILAC quantitative mass spectrometry of biotin-SO2H enrichment. Type of assay: biochemical, human. Conditions: quantified in ≥3 replicates, ≥3 quantified peptides; 400 μM probe. As to the method:
FIG. 16. Quantitative analysis of biotin-SO2H enrichment in 293T cell lysates. Samples were prepared in two sets, one with biotin-SO2H in the “Light” matched with biotin-SO3H in the “Heavy” (N=2), and the other in reverse (N=2). Each was ran as two technical replicated and SILAC ratios (biotin-SO2H/biotin-SO3H) were combined across experiments. “Directions Detected” describes the set of SILAC samples where the protein was quantified. FORWARD refers to biotin-SO2H (light)/biotin-SO3H (heavy), and REVERSE is the opposite direction, biotin-SO2H (heavy)/biotin-SO3H (light). […] Label-free quantification was performed using the Top3 method from the biotin-SO2H labeled pair.
Next, biotin-SO2H labeling was combined with stable-isotope labeling with amino acids in cell culture (SILAC) for quantitative mass spectrometry annotation of endogenous S-sulfinylation in mammalian cells. […] Peptides were analyzed using data-independent acquisition methods in combination with ion mobility separation (HDMS^E) and mobility-dependent collision energy assignment for enhanced fragmentation (see, e.g., Distler, U. et al. Nat Methods (2013)). Through a combination of 4 biological replicates, each with 2 technical replicates, a total of 992 proteins were identified with SILAC ratios >5 (biotin-SO2H/biotin-SO3H), quantified in ≥3 replicates, and represented by ≥3 quantified peptides (FIG. 16). […]

Take `O=C(CCCC[C@@H]1SC[C@@H]2NC(=O)N[C@@H]21)NCCS(=O)O` [biotin-SO2H, 2-(5-((3aS,4S,6aR)-2-oxohexahydro-1H-thieno[3,4-d]imidazol-4-yl)pentanamido)ethanesulfinic Acid]: the “proteins identified with SILAC ratios >5 (biotin-SO2H/biotin-SO3H)” value is on record as 992 proteins.
